We go through 31 compounds from patent US20240252508A1, “Novel glucose uptake inhibitors for use in the treatment of cancer” (NOVELYEAST BV, priority 2021, published 2024).

Assay [1] has as its system A549 lung adenocarcinoma cells. In words: A549 cell proliferation / growth inhibition. The conditions noted are these: for Selected from primary screen for growth inhibition of A549 cells at 50 μM: 50 μM compound, 1 mM glucose; for Selected for having an IC50 ratio (10 mM glucose: 1 mM glucose) of A549 growth higher than WBC-A: IC50 on 10 mM vs 1 mM glucose, compared with WBC-A. Format: cell-based, human. The procedure: The analog library (n=203) was screened for inhibition of growth of A549 cells on RPMI medium supplemented with 1 mM glucose. DMSO (green bar) and WBC-A (orange bar) served as negative and positive control, respectively. In addition, the reference glucose transport inhibitors STF-31, Fasentin, BAY-876, WZB-117 and Cytochalasin B were included and indicated in red. Compounds were added at 50 μM concentration. Number of cells was determined by counting nuclei stained by Hoechst after three days of growth.
For both adherent A549 and MCF10Δ H-RAS^V12 cell lines, growth curves were established using the IncuCyte® ZOOM technology. By collecting phase contrast images, the IncuCyte® software provides a calculated confluency percentage from which growth curves can be deducted.
Cells were seeded at a density of 1000-1500 cells/well in a Nunc-Edge™ 96-well plate (Thermo Fisher Scientific) and growth was typically measured over 3 to 5 days. For the measurement of apoptosis induction using the MCF10Δ H-RAS^V12 cell line, the IncuCyte® Caspase-3/7 green dye was added to the medium in the recommended concentration at the beginning of the growth curve experiment. Apoptosis was detected by taking fluorescent images by excitation at 488 nm followed by IncuCyte® software analysis. Cell growth of the KMS-12-PE multiple myeloma cell line, which grows in suspension, was measured by manual cell counting. Cells were initially seeded at a density of 10^4 cells/well and incubated for 4 days after which the cell number was counted. For all cell lines, the same medium used for pregrowth was also used for the growth curve experiment, albeit with different glucose concentrations depending on the experimental design. With compound administration, the final concentration of DMSO never exceeded 0.1%. Typically, at least four technical repeats were included per condition.

A further assay deals with tps1Δ cells. In words: Growth rescue of tps1Δ strain on glucose (growth curves, 2% galactose medium). Format: cell-based, S. cerevisiae. The following applies: 100 μM compound, 2.5 mM glucose. The procedure: Growth curves were made by measuring OD595 in a 96-well plate using the Multiskan™ FC Microplate Photometer (Thermo Fisher Scientific). Typically, for tps1Δ rescue experiments (FIG. 2b-e; FIG. 4a), cells were (pre)grown in Complete Synthetic medium containing 2% galactose.
Compounds were always added 10 min prior to glucose addition to ensure maximal interaction between the cells and compounds. Cells originating from the preculture were harvested, washed in medium without sugar, after which they were resuspended to an OD of 0.1 in 200 μL of the appropriate medium. At least three technical replicates were included per condition. OD595 was measured at 30° C. every 30 min with a 10-min shaking interval.

On to `Cc1ccc(-c2csc3ncnc(Sc4nc(C5CCCCC5)n(-c5ccccc5)n4)c23)cc1` [1A], for which the “Selected from primary screen for growth inhibition of A549 cells at 50 μM” value in assay [1] is recorded as “No”. For the same compound, the “Rescue of the tps1Δ strain on 2.5 mM glucose at 100 μM” value (from here on “Rescue of the tps1Δ strain”) with tps1Δ cells was “No”.
Turning to `Cc1sc2nc(-c3cccnc3)nc(SCCO)c2c1-c1ccccc1` [13C], in assay [1], the “Selected from primary screen for growth inhibition of A549 cells at 50 μM” value is on record as “Yes” and the “Selected for having an IC50 ratio (10 mM glucose: 1 mM glucose) of A549 growth higher than WBC-A” value (from here on “Selected for having an IC50 ratio”) is reported as “Lower IC50 ratio”. Moreover, the “Rescue of the tps1Δ strain” value with tps1Δ cells is “No”.
Consider `CCc1nc(Sc2nnc(CO)n2C)c2ccsc2n1` [41A], for which, in assay [1], the “Selected from primary screen for growth inhibition of A549 cells at 50 μM” value was “Yes” and the “Selected for having an IC50 ratio” value is recorded as “Lower IC50 ratio”. For the same compound, the “Rescue of the tps1Δ strain” value in the assay on tps1Δ cells is recorded as “No”.
With `CCOC(=O)CSc1nnc(C)c2cnn(-c3ccccc3)c12` [74C], in assay [1], the “Selected from primary screen for growth inhibition of A549 cells at 50 μM” value was “No”. In addition, the “Rescue of the tps1Δ strain” value in the assay on tps1Δ cells is “No”.
`CC(=O)NCc1ccc(C(=O)CSc2nc(C)nc3scc(-c4cccs4)c23)o1` [29B]: the “Selected from primary screen for growth inhibition of A549 cells at 50 μM” value in assay [1] is reported as “No”. In the assay on tps1Δ cells, the “Rescue of the tps1Δ strain” value was “Yes”.
In the case of `Cc1nc(N2CCC3(CC2)OCCO3)c2c(-c3cccs3)csc2n1` [47B], in assay [1], the “Selected from primary screen for growth inhibition of A549 cells at 50 μM” value is given as “Yes” and the “Selected for having an IC50 ratio” value is “Lower IC50 ratio”. For the same compound, the “Rescue of the tps1Δ strain” value in the assay on tps1Δ cells is listed as “No”.
On the same counts, the results for `COCCNC(=O)CN(C)c1nc(C)nc2scc(-c3cccs3)c12` [23B] are “Yes”, “Lower IC50 ratio” and “No”.
Turning to `Cc1nc(SCC(=O)N2CCOCC2)c2cc(-c3ccccc3)sc2n1` [28C], in assay [1], the “Selected from primary screen for growth inhibition of A549 cells at 50 μM” value is “No”. The “Rescue of the tps1Δ strain” value in the assay on tps1Δ cells is recorded as “No”.
In the case of `CCN(CC)CCSc1nc(C)nc2sc3c(c12)CCC3` [33C], in assay [1], the “Selected from primary screen for growth inhibition of A549 cells at 50 μM” value is “Yes” and the “Selected for having an IC50 ratio” value was “Lower IC50 ratio”. In addition, the “Rescue of the tps1Δ strain” value in the assay with tps1Δ cells is reported as “No”.
As for `Cc1nc(SCC(N)=O)c2c(C)c(C)sc2n1` [61C], the “Selected from primary screen for growth inhibition of A549 cells at 50 μM” value in assay [1] is given as “No”. In addition, the “Rescue of the tps1Δ strain” value in the assay on tps1Δ cells was “No”.
As to `COc1ccc(-c2csc3nc(C)nc(Sc4nccn4C)c23)cc1OC` [42A], in assay [1], the “Selected from primary screen for growth inhibition of A549 cells at 50 μM” value is given as “Yes” and the “Selected for having an IC50 ratio” value is “Lower IC50 ratio”. In the assay on tps1Δ cells, the “Rescue of the tps1Δ strain” value was “No”.
On the same counts, the results for `OCCSc1nc(-c2cccs2)nc2scc(-c3ccccc3)c12` [23C] are “Yes”, “Lower IC50 ratio” and “No”.
Turning to `Cc1nc(SCCO)c2c(C)c(C)sc2n1` [57C], the “Selected from primary screen for growth inhibition of A549 cells at 50 μM” value in assay [1] was “No”. The “Rescue of the tps1Δ strain” value in the assay on tps1Δ cells is listed as “No”.
On to `CCn1nnnc1Sc1ncnc2scc(-c3ccc(C)cc3)c12` [61A], for which, in assay [1], the “Selected from primary screen for growth inhibition of A549 cells at 50 μM” value is on record as “Yes” and the “Selected for having an IC50 ratio” value is reported as “Lower IC50 ratio”. Also, in the assay with tps1Δ cells, the “Rescue of the tps1Δ strain” value was “No”.
On to `Cc1nnc(SCC(=O)NC(C)(C)C)c2c1cnn2-c1ccccc1` [75C], for which the “Selected from primary screen for growth inhibition of A549 cells at 50 μM” value in assay [1] is listed as “No”. Besides, the “Rescue of the tps1Δ strain” value in the assay on tps1Δ cells is reported as “No”.
`Cc1nc(Sc2nc(CSc3ccccc3)nc3sc(C)c(C)c23)n[nH]1` [10A]: the “Selected from primary screen for growth inhibition of A549 cells at 50 μM” value in assay [1] is recorded as “No”. Moreover, the “Rescue of the tps1Δ strain” value in the assay on tps1Δ cells was “No”.
Regarding `CN(Cc1nnc2n1CCCCC2)c1ncnc2sc(-c3ccccc3)cc12` [34A], the “Selected from primary screen for growth inhibition of A549 cells at 50 μM” value in assay [1] was “No”. Moreover, in the assay on tps1Δ cells, the “Rescue of the tps1Δ strain” value is listed as “No”.
For `CCOC(=O)c1sc2nc(C)nc(SCC(N)=O)c2c1C` [59C], the “Selected from primary screen for growth inhibition of A549 cells at 50 μM” value in assay [1] is given as “No”. Moreover, the “Rescue of the tps1Δ strain” value in the assay with tps1Δ cells is listed as “No”.
Take `Cc1nc(SCC(=O)Nc2cc(C)on2)c2c(-c3cccs3)csc2n1` [10C]: in assay [1], the “Selected from primary screen for growth inhibition of A549 cells at 50 μM” value is “Yes” and the “Selected for having an IC50 ratio” value is given as “Lower IC50 ratio”. In addition, the “Rescue of the tps1Δ strain” value in the assay with tps1Δ cells is “Yes”.
In the case of `Cc1nc(Sc2nnc(C(F)(F)F)n2C)c2c(-c3cccs3)csc2n1` [54C], in assay [1], the “Selected from primary screen for growth inhibition of A549 cells at 50 μM” value is recorded as “Yes” and the “Selected for having an IC50 ratio” value is on record as “Lower IC50 ratio”. The “Rescue of the tps1Δ strain” value in the assay on tps1Δ cells is recorded as “Yes”.
As for `Cc1nc(Sc2nnnn2-c2ccccc2C)c2c(-c3cccs3)csc2n1` [20C], in assay [1], the “Selected from primary screen for growth inhibition of A549 cells at 50 μM” value is reported as “Yes” and the “Selected for having an IC50 ratio” value is “Lower IC50 ratio”. Also, in the assay with tps1Δ cells, the “Rescue of the tps1Δ strain” value is reported as “No”.
On the same counts, the results for `Cc1ccc(-c2csc3ncnc(SCC(=O)N(C)Cc4ccc(C)o4)c23)cc1` [2B] are “Yes”, “Lower IC50 ratio” and “No”.
Turning to `Cc1nc(SC(C(=O)NC(N)=O)C(C)C)c2c(-c3cccs3)csc2n1` (stereo not drawn) [34B], in assay [1], the “Selected from primary screen for growth inhibition of A549 cells at 50 μM” value is “No”. The “Rescue of the tps1Δ strain” value in the assay on tps1Δ cells is given as “No”.
On to `Cc1nc(SCC(=O)c2c(N)n(C)c(=O)n(C)c2=O)c2c(-c3cccs3)csc2n1` [1B], for which the “Selected from primary screen for growth inhibition of A549 cells at 50 μM” value in assay [1] is “No”. For the same compound, the “Rescue of the tps1Δ strain” value in the assay on tps1Δ cells is listed as “No”.
As to `Cc1nc(S)c2c(-c3cccs3)csc2n1` [67A], in assay [1], the “Selected from primary screen for growth inhibition of A549 cells at 50 μM” value is recorded as “No”. Also, the “Rescue of the tps1Δ strain” value in the assay on tps1Δ cells was “No”.
Regarding `Cc1nc(SCC(=O)N2CC(C)OC(C)C2)c2c(-c3cccs3)csc2n1` (stereo not drawn) [5B], the “Selected from primary screen for growth inhibition of A549 cells at 50 μM” value in assay [1] is listed as “No”. Besides, the “Rescue of the tps1Δ strain” value in the assay on tps1Δ cells is listed as “Yes”.
For the compound `Cc1nnc(SCC(=O)N2CCOCC2)c2c1cnn2-c1ccccc1` [70C], the “Selected from primary screen for growth inhibition of A549 cells at 50 μM” value in assay [1] is listed as “No”. Besides, in the assay with tps1Δ cells, the “Rescue of the tps1Δ strain” value is “No”.
In the case of `Cc1sc2nc(CSc3ccccc3)nc(NCc3nnc4n3CCCCC4)c2c1C` [9A], the “Selected from primary screen for growth inhibition of A549 cells at 50 μM” value in assay [1] is recorded as “No”. Further, the “Rescue of the tps1Δ strain” value in the assay on tps1Δ cells is “No”.
Consider `CCOC(=O)c1sc2nc(C)nc(SCC(=O)CC)c2c1C` [12C], for which the “Selected from primary screen for growth inhibition of A549 cells at 50 μM” value in assay [1] was “No”. In addition, the “Rescue of the tps1Δ strain” value with tps1Δ cells is on record as “No”.
For `Cc1nc(Sc2nnc(-c3cccnc3)n2C)c2c(-c3cccs3)csc2n1` [23A], in assay [1], the “Selected from primary screen for growth inhibition of A549 cells at 50 μM” value was “Yes” and the “Selected for having an IC50 ratio” value is on record as “Lower IC50 ratio”. Besides, the “Rescue of the tps1Δ strain” value with tps1Δ cells is recorded as “Yes”.
With `OCCSc1ncnc2sc3c(c12)CCCC3` [27C], the “Selected from primary screen for growth inhibition of A549 cells at 50 μM” value in assay [1] is recorded as “No”. Also, the “Rescue of the tps1Δ strain” value in the assay with tps1Δ cells is “No”.
